This is an account of results in EP4692091A1, “CA[…], AND PHARMACEUTICAL COMPOSITION, PREPARATION METHOD THEREFOR AND USE THEREOF” (Changchun Genescience Pharmaceutical Co., Ltd., priority 2023, dated 2024).

Converted amounts (≈) assume the structure as drawn. Read-outs that look alike come from different tables or passages of the source.

As a reminder, the solubility is the concentration that dissolves in the medium under given conditions. Lower therefore signals a poorly soluble substance. One may read the IC50 as the concentration at which inhibition is half-maximal.

Data set [1] can be described thus: Kinetic solubility test in PBS 7.4. It counts as physicochemical. The settings on record: pH 7.4, aqueous buffer. As to the method: 10 mM stock solutions of the test substances 6-2, 11-2, 17-2, Dxd, and the control drugs progesterone and diclofenac were prepared using DMSO respectively.
15 µL of 10 mM stock solution of each of the test substances was added to a corresponding position of a corresponding 96-well plate in a specified sequence. 485 µL of the PBS 7.4 was added to a corresponding vial on a sample plate. The experiment was run in duplicate. Each vial was additionally provided with a stirring rod and was plugged. Then, the sample plate was transferred in a thermostatic mixer, and oscillated at a revolving speed of 1,100 rpm at 25°C for 2 h. 2 h later, the plug was removed, the stirring rod was attracted away with a large magnet, and then the sample was transferred from the sample plate to the filter plate. Negative pressure was generated using a vacuum pump to filter the sample. 5 µL of filtrate and 5 µL of blank DMSO were transferred to another sample plate, and then 490 µL of internal standard water (acetonitrile:water=1:1) containing the internal standard was added. Depending on peak shapes, a certain proportion of internal standard water may be used to dilute the sample diluent to give better peak shapes. […]
The sample filtrate was analyzed and quantified by qualitative and quantitative LC/MS of standard substance peaks at known concentrations. […]

The next data set relates to MDA-MB-468. Description: Inhibition of proliferation of MDA-MB-468 cells by test compounds (CellTiter-Glo, 72 h). It counts as cell-based. The note with it: Homo sapiens, MDA-MB-468, 72 h, MDA-MB-468, 72 h incubation. An outline of the steps:
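Cells plated, allowed to adhere, then treated with compounds (final DMSO 0.33%) for 72 h at 37°C. Viability read by CellTiter-Glo luminescence after 30 min at room temperature; IC50 from four-parameter nonlinear fit.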
On the technique in general: Cellular ATP, detected with luciferase, serves as a proxy for viable cell number.

The subject of another data set is SK-BR-3. Description: Inhibition of proliferation of SK-BR-3 cells by compounds (CellTiter-Glo, 72 h). Format: cell-based. The note with it: Homo sapiens, SK-BR-3, 72 h, SK-BR-3, 72 h incubation. An outline of the steps:
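SK-BR-3 cells plated in 384-well format, allowed to adhere, then exposed to compound (0.33% DMSO final) for 72 h at 37 °C, 5% CO2. Viability read by CellTiter-Glo luminescence; IC50 from four-parameter nonlinear fit.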

A further data set addresses CYP1A2 (Homo sapiens, UniProt P05177). Description: CYP inhibition in human hepatomicrosomes, CYP1A2.
Data set [2] is described as follows: Stability of compounds in human plasma. Format: in vitro ADME. The settings on record: 37°C, 5 µmol/L, read-out: Residual percentage (%).
Another data set concerns the target CYP2D6 (Homo sapiens, UniProt P10635). Kind of data set: CYP inhibition in human hepatomicrosomes, CYP2D6.
Another data set deals with CYP3A4 (Homo sapiens, UniProt P08684). Kind of data set: CYP inhibition in human hepatomicrosomes, CYP3A4.
CYP3A4, sequence (P08684 whole entry): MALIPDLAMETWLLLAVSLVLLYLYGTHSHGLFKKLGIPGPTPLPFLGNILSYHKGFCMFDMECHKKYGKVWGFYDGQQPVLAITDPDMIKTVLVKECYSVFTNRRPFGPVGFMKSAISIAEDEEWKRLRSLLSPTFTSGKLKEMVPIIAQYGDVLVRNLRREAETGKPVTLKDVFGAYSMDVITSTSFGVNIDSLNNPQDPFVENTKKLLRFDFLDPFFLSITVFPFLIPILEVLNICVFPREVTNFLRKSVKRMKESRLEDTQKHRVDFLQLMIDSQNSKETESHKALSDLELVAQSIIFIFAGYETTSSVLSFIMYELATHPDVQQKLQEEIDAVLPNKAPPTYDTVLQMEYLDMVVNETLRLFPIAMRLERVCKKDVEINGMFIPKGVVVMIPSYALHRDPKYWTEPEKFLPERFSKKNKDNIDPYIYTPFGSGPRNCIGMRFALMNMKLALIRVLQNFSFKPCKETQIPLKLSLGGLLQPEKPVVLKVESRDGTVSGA
The subject of a further data set is NCI-N87. Kind of data set: Inhibition of proliferation of NCI-N87 cells by test compounds (CellTiter-Glo, 72 h). It counts as cell-based. The settings on record: Homo sapiens, NCI-N87, 72 h, NCI-N87, 72 h incubation. An outline of the steps: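 NCI-N87 cells were treated after adhesion with compound (final DMSO 0.33%) for 72 h at 37°C. Viability was read as CellTiter-Glo luminescence, and IC50 came from a four-parameter nonlinear fit.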

CYP2D6, sequence (P10635 whole entry): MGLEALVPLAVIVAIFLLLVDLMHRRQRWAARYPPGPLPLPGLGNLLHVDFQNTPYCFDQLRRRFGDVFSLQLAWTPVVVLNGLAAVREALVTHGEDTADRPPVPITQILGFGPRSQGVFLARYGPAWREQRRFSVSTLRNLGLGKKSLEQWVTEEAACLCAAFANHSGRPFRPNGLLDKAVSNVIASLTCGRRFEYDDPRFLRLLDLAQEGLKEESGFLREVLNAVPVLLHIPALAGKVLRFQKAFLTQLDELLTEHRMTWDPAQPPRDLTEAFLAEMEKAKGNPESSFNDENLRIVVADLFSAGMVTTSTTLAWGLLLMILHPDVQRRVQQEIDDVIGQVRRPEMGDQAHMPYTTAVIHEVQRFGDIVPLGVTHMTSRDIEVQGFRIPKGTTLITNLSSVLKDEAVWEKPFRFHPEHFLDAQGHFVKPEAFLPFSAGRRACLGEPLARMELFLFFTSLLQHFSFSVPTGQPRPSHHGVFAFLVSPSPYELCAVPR
CYP1A2, sequence (P05177 whole entry): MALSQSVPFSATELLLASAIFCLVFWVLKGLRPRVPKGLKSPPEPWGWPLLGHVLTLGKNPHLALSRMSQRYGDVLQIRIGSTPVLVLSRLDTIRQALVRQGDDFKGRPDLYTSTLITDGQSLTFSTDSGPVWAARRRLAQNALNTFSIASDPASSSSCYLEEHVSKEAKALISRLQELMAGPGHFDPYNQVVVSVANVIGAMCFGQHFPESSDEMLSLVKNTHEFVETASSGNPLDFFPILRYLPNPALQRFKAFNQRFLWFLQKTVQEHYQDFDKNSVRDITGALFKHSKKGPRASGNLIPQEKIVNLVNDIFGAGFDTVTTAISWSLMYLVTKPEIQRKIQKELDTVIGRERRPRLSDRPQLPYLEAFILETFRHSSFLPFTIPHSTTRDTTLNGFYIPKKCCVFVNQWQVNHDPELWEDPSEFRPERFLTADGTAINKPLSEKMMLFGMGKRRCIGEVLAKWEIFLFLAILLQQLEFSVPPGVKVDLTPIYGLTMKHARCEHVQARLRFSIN

In data set [1], `CC[C@@]1(O)C(=O)OCc2c1cc1n(c2=O)Cc2c-1nc1cc(F)c(C)c3c1c2[C@@H](NC(=O)CO)CC3` [Dxd] displayed a solubility at 2 h of 11.3 µM (≈ 5.58 µg/mL). In addition, the IC50 in the data set with MDA-MB-468 is 4.6 nM; in the data set with SK-BR-3, 11 nM; at CYP1A2, over 30000 nM; against CYP2D6 it was over 30000 nM; against CYP3A4, over 30 µM; on CYP3A4 (read-out: 3A4M (IC50 µM), human hepatomicrosomes, substrate Midazolam), over 30 µM. Besides, the IC50 in the data set on NCI-N87 turned out to be 11 nM. For the same molecule, the remaining at 4 h, 5 µM in data set [2] is 83.6%.
